The results in this text go back to patent US8148391B2 (Cephalon, Inc., priority 2006, dated 2012).

Assay [1] concerns the target T1, baculovirus-expressed ALK (Homo sapiens, UniProt Q9UM73).
T1 construct: host or cells: baculovirus expression system
Nature of the assay: ALK Kinase Assay (ELISA-type, time-resolved fluorescence). Type of assay: biochemical. Particulars: 1 μM ATP (Km level). In short, it runs like this:
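Plates coated with phospholipase C-γ substrate (10 μg/mL in TBS); reaction started with 30 ng/ml ALK and run 15 min at 37° C. Phosphorylated substrate detected with Eu-N1-labeled PT66 antibody. IC50 from sigmoidal variable-slope fit of percent inhibition vs log concentration.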
(ELISA stands for enzyme-linked immunosorbent assay.)

Assay [2] addresses T2, c-Met (cytoplasmic domain) (Homo sapiens, UniProt P08581).
T2 construct: 10 ng/mL c-Met (cytoplasmic domain, Invitrogen Corporation #PV3143); purchased Invitrogen Corporation PV3143
Nature of the assay: c-Met Kinase Assay (same methods as for ALK, with modifications). Type of assay: biochemical. Particulars: 1 μM ATP (Km level). In short, it runs like this:
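Plates were coated with phospholipase C-γ substrate (10 μg/mL) in TBS, and the reaction was started with 10 ng/mL c-Met cytoplasmic domain and run 15 min at 37 °C. Phosphoproduct was detected with Eu-N1-labelled PT66 antibody. IC50 came from a variable-slope sigmoidal fit of percent inhibition vs log concentration.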

Where [3] appears, read: ALK kinase inhibition, read-out: ALK Activity.
Where [4] appears, read: c-Met kinase inhibition, read-out: cMet Activity.
Setting [5] is: read-out: ALK Activity (ALK Kinase Inhibition, IC50).
[6] abbreviates: read-out: cMet Activity (c-Met Kinase Inhibition, IC50).
[7] abbreviates: 30 ng/ml ALK, 37° C., 15 minutes, read-out: ALK Activity (ALK kinase inhibition, IC50 class).
[8] abbreviates: 10 ng/mL c-Met, read-out: cMet Activity (c-Met kinase inhibition, IC50 class).

Like-named read-outs stand apart in the source and are kept apart here. A value given as a limit tells only on which side of the number the result lay.

T2 sequence (P08581 956-1390 limits assumed): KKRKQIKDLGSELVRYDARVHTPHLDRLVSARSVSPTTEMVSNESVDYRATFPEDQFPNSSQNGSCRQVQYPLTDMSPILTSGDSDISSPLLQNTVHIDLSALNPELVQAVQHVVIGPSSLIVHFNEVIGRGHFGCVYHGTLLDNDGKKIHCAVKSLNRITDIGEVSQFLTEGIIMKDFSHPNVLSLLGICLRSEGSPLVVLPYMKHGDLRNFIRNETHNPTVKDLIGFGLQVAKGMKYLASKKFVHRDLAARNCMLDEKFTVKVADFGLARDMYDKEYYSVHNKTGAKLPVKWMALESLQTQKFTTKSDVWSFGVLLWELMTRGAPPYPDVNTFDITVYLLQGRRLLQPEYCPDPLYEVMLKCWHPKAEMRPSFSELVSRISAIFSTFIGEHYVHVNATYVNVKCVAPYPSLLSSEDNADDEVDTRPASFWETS
T1 sequence (Q9UM73 19-1620): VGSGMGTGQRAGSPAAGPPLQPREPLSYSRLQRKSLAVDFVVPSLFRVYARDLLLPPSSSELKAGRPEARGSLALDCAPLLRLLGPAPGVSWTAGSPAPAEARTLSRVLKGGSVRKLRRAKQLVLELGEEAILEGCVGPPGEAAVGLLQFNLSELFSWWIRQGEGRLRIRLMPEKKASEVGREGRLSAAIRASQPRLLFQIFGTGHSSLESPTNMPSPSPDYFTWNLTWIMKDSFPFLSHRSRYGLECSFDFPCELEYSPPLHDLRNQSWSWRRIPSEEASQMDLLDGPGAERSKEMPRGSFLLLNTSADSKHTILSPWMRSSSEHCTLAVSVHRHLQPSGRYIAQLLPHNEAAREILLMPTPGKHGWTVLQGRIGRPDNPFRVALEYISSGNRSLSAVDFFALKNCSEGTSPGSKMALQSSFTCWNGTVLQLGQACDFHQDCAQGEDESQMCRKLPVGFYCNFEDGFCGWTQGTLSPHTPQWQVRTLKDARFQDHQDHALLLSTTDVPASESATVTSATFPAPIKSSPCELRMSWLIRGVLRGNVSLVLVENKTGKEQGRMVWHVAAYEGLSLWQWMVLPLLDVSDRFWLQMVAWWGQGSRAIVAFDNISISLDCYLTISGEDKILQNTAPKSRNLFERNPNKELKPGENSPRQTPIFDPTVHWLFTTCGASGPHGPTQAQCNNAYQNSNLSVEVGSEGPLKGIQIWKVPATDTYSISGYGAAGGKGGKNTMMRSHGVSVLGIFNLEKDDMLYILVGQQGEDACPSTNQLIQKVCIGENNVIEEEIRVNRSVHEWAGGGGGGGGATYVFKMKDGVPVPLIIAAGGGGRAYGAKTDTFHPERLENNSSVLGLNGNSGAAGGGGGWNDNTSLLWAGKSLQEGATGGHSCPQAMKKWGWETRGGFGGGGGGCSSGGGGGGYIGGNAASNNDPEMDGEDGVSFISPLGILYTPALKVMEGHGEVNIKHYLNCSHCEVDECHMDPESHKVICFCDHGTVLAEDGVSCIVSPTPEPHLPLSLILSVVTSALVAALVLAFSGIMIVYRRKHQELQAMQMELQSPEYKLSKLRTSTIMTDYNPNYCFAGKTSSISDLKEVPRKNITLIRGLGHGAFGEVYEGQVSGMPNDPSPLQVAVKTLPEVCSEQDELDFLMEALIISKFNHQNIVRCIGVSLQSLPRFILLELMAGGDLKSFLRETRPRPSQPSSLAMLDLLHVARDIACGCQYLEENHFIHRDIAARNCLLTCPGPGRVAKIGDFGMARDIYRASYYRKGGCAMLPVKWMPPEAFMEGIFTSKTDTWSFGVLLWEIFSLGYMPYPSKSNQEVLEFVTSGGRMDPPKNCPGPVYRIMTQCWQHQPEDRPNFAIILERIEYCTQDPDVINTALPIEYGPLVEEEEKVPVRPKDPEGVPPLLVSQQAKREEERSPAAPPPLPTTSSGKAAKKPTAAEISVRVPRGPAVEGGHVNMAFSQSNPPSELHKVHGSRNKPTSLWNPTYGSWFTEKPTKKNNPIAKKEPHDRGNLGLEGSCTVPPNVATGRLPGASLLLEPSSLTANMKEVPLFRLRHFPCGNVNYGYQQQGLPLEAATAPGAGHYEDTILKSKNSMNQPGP

Regarding `CNC(=O)[C@@H]1CCC[C@@H]1Nc1nc(Nc2ccc3c(c2)CCN(CCOC)CC3)ncc1Cl` (relative stereo) [Example 372, cis-2-{5-Chloro-2-[3-(2-methoxy-ethyl)-2,3,4,5-tetrahydro-1H-benzo[d]azepin-7-ylamino]-pyrimidin-4-ylamino}-cyclopentanecarboxylic acid methylamide], the IC50 in assay [1] (setting [3]) was less than 100 nM; in assay [2] (setting [4]), 100 to 1000 nM.

Consider `CCN1C(=O)CCCc2c1ccc(Nc1ncc(Cl)c(N[C@H]3CCC[C@H]3C(=O)NC)n1)c2OC` (relative stereo) [Example 373, cis-2-[5-Chloro-2-(1-ethyl-6-methoxy-2-oxo-2,3,4,5-tetrahydro-1H-benzo[b]azepin-7-ylamino)-pyrimidin-4-ylamino]-cyclopentanecarboxylic acid methylamide], for which the IC50 was less than 100 nM in assay [1] (setting [3]) and more than 10000 nM in assay [2] (setting [4]).

For `CCN1C(=O)CCCc2c1ccc(Nc1ncc(Cl)c(N[C@@H]3CCC[C@H]3NS(C)(=O)=O)n1)c2OC` (relative stereo) [Example 374, N-{trans-2-[5-Chloro-2-(1-ethyl-6-methoxy-2-oxo-2,3,4,5-tetrahydro-1H-benzo[b]azepin-7-ylamino)-pyrimidin-4-ylamino]-cyclopentyl}-methanesulfonamide], the results for the IC50 in assay [1] (setting [3]) and in assay [2] (setting [4]) were 100 to 1000 nM and more than 10000 nM, respectively.

For the compound `CNC(=O)[C@@H]1CCC[C@@H]1Nc1nc(Nc2cc3c(cc2OC)CCN(CC(=O)N(C)C)CC3)ncc1Cl` (relative stereo) [Example 375, cis-2-[5-Chloro-2-(3-dimethylcarbamoylmethyl-8-methoxy-2,3,4,5-tetrahydro-1H-benzo[d]azepin-7-ylamino)-pyrimidin-4-ylamino]-cyclopentanecarboxylic acid methylamide], the IC50 is less than 100 nM in assay [1] (setting [3]) and more than 10000 nM in assay [2] (setting [4]).

With `CN1C(=O)CCC(C)(C)c2cc(Nc3ncc(Cl)c(N[C@H]4[C@@H](C(N)=O)[C@@H]5C=C[C@H]4C5)n3)ccc21` (relative stereo) [Example 386, (2-exo, 3-exo)-3-[5-Chloro-2-(1,5,5-trimethyl-2-oxo-2,3,4,5-tetrahydro-1H-benzo[b]azepin-7-ylamino)-pyrimidin-4-ylamino]-bicyclo[2.2.1]hept-5-ene-2-carboxylic acid amide], the results for the IC50 in assay [1] (setting [3]) and in assay [2] (setting [4]) were less than 100 nM and 100 to 1000 nM, respectively.

For `COCCN1CCc2ccc(Nc3ncc(Cl)c(N[C@@H]4[C@H](C(N)=O)[C@@H]5C=C[C@H]4C5)n3)cc2CC1` (relative stereo) [Example 459, (2-endo, 3-endo)-3-{5-Chloro-2-[3-(2-methoxy-ethyl)-2,3,4,5-tetrahydro-1H-benzo[d]azepin-7-ylamino]-pyrimidin-4-ylamino}-bicyclo[2.2.1]hept-5-ene-2-carboxylic acid amide], the results for the IC50 in assay [1] (setting [3]) and in assay [2] (setting [4]) were less than 100 nM and 1000 to 10000 nM, respectively.

Turning to `CCN1C(=O)CCCc2c1ccc(Nc1ncc(Cl)c(N[C@H]3[C@@H](C(=O)NC)[C@@H]4C=C[C@H]3C4)n1)c2OC` (relative stereo) [Example 601, (2-exo-3-exo)-3-[5-Chloro-2-(1-ethyl-6-methoxy-2-oxo-2,3,4,5-tetrahydro-1H-benzo[b]azepin-7-ylamino)-pyrimidin-4-ylamino]-bicyclo[2.2.1]hept-5-ene-2-carboxylic acid methylamide], the IC50 is less than 100 nM in assay [1] (setting [5]) and more than 10000 nM in assay [2] (setting [6]).

As for `CNC(=O)[C@H]1[C@@H](Nc2nc(Nc3ccc4c(c3)CCN(CCOC)CC4)ncc2Cl)[C@@H]2C=C[C@H]1C2` (relative stereo) [Example 615, (2-exo-3-exo)-3-{5-Chloro-2-[3-(2-methoxy-ethyl)-2,3,4,5-tetrahydro-1H-benzo[d]azepin-7-ylamino]-pyrimidin-4-ylamino}-bicyclo[2.2.1]hept-5-ene-2-carboxylic acid methylamide], the IC50 in assay [1] (setting [5]) is less than 100 nM; in assay [2] (setting [6]), 100 to 1000 nM.

Turning to `CNC(=O)[C@@H]1[C@H](Nc2nc(Nc3ccc4c(c3)C(C)(C)CCC(=O)N4)ncc2Cl)[C@H]2C=C[C@@H]1C2` (relative stereo) [Example 620, (2-exo-3-exo)-3-[5-Chloro-2-(5,5-dimethyl-2-oxo-2,3,4,5-tetrahydro-1H-benzo[b]azepin-7-ylamino)-pyrimidin-4-ylamino]-bicyclo[2.2.1]hept-5-ene-2-carboxylic acid methylamide], the IC50 was less than 100 nM in assay [1] (setting [5]) and 100 to 1000 nM in assay [2] (setting [6]).

Turning to `COc1cc2c(cc1Nc1ncc(Cl)c(N[C@H]3[C@@H](C(N)=O)[C@@H]4C=C[C@H]3C4)n1)CCN(CC(F)F)CC2` (relative stereo) [Example 763, (2-exo,3-exo)-3-{5-Chloro-2-[3-(2,2-difluoro-ethyl)-8-methoxy-2,3,4,5-tetrahydro-1H-benzo[d]azepin-7-ylamino]-pyrimidin-4-ylamino}-bicyclo[2.2.1]hept-5-ene-2-carboxylic acid amide], the IC50 in assay [1] (setting [5]) is less than 100 nM; in assay [2] (setting [6]), more than 10000 nM.

Regarding `COCCN1CCc2ccc(Nc3ncc(Cl)c(N[C@@H]4CCC[C@@H](NS(C)(=O)=O)C4)n3)cc2CC1` (relative stereo) [Example 1379, rel-N-((1R,3R)-3-{5-Chloro-2-[3-(2-methoxy-ethyl)-2,3,4,5-tetrahydro-1H-benzo[d]azepin-7-ylamino]-pyrimidin-4-ylamino}-cyclohexyl)-methanesulfonamide], the IC50 in assay [1] (setting [7]) and in assay [2] (setting [8]) was 1000 to 10000 nM throughout.

Regarding `COCCN1CCc2ccc(Nc3ncc(Cl)c(N[C@@H]4CCC[C@H](NS(C)(=O)=O)C4)n3)cc2CC1` (relative stereo) [Example 1380, rel-N-((1S,3R)-3-{5-Chloro-2-[3-(2-methoxy-ethyl)-2,3,4,5-tetrahydro-1H-benzo[d]azepin-7-ylamino]-pyrimidin-4-ylamino}-cyclohexyl)-methanesulfonamide], the results for the IC50 in assay [1] (setting [7]) and in assay [2] (setting [8]) were 1000 to 10000 nM and more than 10000 nM, respectively.

As for `COCCN1CCc2ccc(Nc3ncc(Cl)c(N[C@@H]4CCC[C@@H](N(CC#N)S(C)(=O)=O)C4)n3)cc2CC1` (relative stereo) [Example 1382, rel-N-((1R,3R)-3-{5-Chloro-2-[3-(2-methoxy-ethyl)-2,3,4,5-tetrahydro-1H-benzo[d]azepin-7-ylamino]-pyrimidin-4-ylamino}-cyclohexyl)-N-cyanomethyl-methanesulfonamide], the IC50 in assay [1] (setting [7]) was 100 to 1000 nM; in assay [2] (setting [8]), 1000 to 10000 nM.

Consider `COCCN1CCc2ccc(Nc3ncc(Cl)c(N[C@@H]4CCC[C@H](N(CC#N)S(C)(=O)=O)C4)n3)cc2CC1` (relative stereo) [Example 1386, rel-N-((1S,3R)-3-{5-Chloro-2-[3-(2-methoxy-ethyl)-2,3,4,5-tetrahydro-1H-benzo[d]azepin-7-ylamino]-pyrimidin-4-ylamino}-cyclohexyl)-N-cyanomethyl-methanesulfonamide], for which the IC50 in assay [1] (setting [7]) lay within 100 to 1000 nM; in assay [2] (setting [8]), 1000 to 10000 nM.

Consider `CNC(=O)c1ccccc1Nc1nc(Nc2ccc3c(c2)C2CN(S(C)(=O)=O)CC3O2)ncc1Cl` (single isomer, unassigned) [Example 183, 2-[5-Chloro-2-(10-methanesulfonyl-12-oxa-10-aza-tricyclo[6.3.1.0*2,7*]dodeca-2(7),3,5-trien-4-ylamino)-pyrimidin-4-ylamino]-N-methyl-benzamide], for which the IC50 in assay [1] (setting [3]) and in assay [2] (setting [4]) was less than 100 nM each time.

Consider `NC(=O)[C@@H]1[C@H](Nc2nc(Nc3ccc4c(c3)CCC(N3CCOCC3)CC4)ncc2Cl)[C@H]2C=C[C@@H]1C2` (single isomer, unassigned) [Example 681], for which the values for the IC50 in assay [1] (setting [5]) and in assay [2] (setting [6]) were less than 100 nM and 100 to 1000 nM, respectively.

For `NC(=O)[C@@H]1[C@H](Nc2nc(Nc3ccc4c(c3)CCC(N3CCOCC3)CC4)ncc2Cl)[C@H]2C=C[C@@H]1C2` (single isomer, unassigned) [Example 682], the IC50 is less than 100 nM in assay [1] (setting [5]) and 100 to 1000 nM in assay [2] (setting [6]).

Take `COCCNC1CCc2ccc(Nc3ncc(Cl)c(N[C@@H]4CCCC[C@H]4NS(C)(=O)=O)n3)c(OC)c2CC1` (single isomer, unassigned) [Example 693]: the IC50 in assay [1] (setting [5]) was less than 100 nM; in assay [2] (setting [6]), more than 10000 nM.

On to `COCCNC1CCc2ccc(Nc3ncc(Cl)c(N[C@@H]4CCCC[C@H]4NS(C)(=O)=O)n3)c(OC)c2CC1` (single isomer, unassigned) [Example 694], for which the IC50 was less than 100 nM in assay [1] (setting [5]) and more than 10000 nM in assay [2] (setting [6]).

`COc1c(Nc2ncc(Cl)c(N[C@H]3[C@@H](C(N)=O)[C@@H]4C=C[C@H]3C4)n2)ccc2c1CCC(NCCO)CC2` (single isomer, unassigned) [Example 696]: the IC50 in assay [1] (setting [5]) is less than 100 nM; in assay [2] (setting [6]), more than 10000 nM.

In the case of `COc1c(Nc2ncc(Cl)c(N[C@H]3[C@@H](C(N)=O)[C@@H]4C=C[C@H]3C4)n2)ccc2c1CCC(NCCO)CC2` (single isomer, unassigned) [Example 697], the IC50 in assay [1] (setting [5]) was less than 100 nM; in assay [2] (setting [6]), 1000 to 10000 nM.

In the case of `COc1c(Nc2ncc(Cl)c(N[C@@H]3CCCC[C@H]3NS(C)(=O)=O)n2)ccc2c1CCC(NCCO)CC2` (single isomer, unassigned) [Example 698], the IC50 in assay [1] (setting [5]) was less than 100 nM; in assay [2] (setting [6]), more than 10000 nM.

In the case of `COc1c(Nc2ncc(Cl)c(N[C@@H]3CCCC[C@H]3NS(C)(=O)=O)n2)ccc2c1CCC(NCCO)CC2` (single isomer, unassigned) [Example 699], the IC50 in assay [1] (setting [5]) was less than 100 nM; in assay [2] (setting [6]), more than 10000 nM.
